Consider one compound from paper PMC5739597, “Discovery and evaluation of triple inhibitors of VEGFR-2, TIE-2 and EphB4 as anti-angiogenic and anti-cancer agents” (Oncotarget, 2017).

Test [1] concerns the target T1, VEGFR-2 (Homo sapiens, UniProt P35968). Briefly: ADP-Glo in vitro RTK inhibition assay, VEGFR-2. Particulars: ATP 50 μM. Format: biochemical. The procedure:
(§1) In order to validate the direct effect of title compounds on VEGFR-2, Tie-2, and EphB4 kinases, we performed in vitro assay using the ADP-Glo Kinase Assay Kit (Promega, Wisconsin, USA).
(§2) The kinase assay was performed in a reaction mixture of final volume of 10 μL. […] The plate was incubated at 30°C for 1 h. After the plate was cooled at room temperature for 5 min, 5 μL of ADP-Glo reagent was added into each well to stop the reaction and consume the remaining […] within 40 min. At the end, 10 μL of kinase detection reagent was added into the well and incubated for 30 min to produce a luminescence signal. […] The assay plate was incubated at 30°C for 4 h. After the plate was cooled at room temperature for 5 min, 5 μL of ADP-Glo reagent was added into each well to stop the reaction and consume the remaining […] within 1 h. At the end, 10 μL of kinase detection reagent was added into each well and incubated for 30 min to produce a luminescence signal. The luminescence was read by VICTOR-X multi-label plate reader.

For test [2], the target named is T1, VEGFR-2. The test can be described thus: VEGFR-2/cell membrane chromatography (CMC) affinity evaluation. Type of test: binding. The procedure:
In previous studies, artificial cultures highly expressing VEGFR-2 on HEK293 cell lines were constructed. […] Chromatographic conditions: 10 mm×2.0 mm; flow rate0.6 mL/min; column temperature 37°C; mobile phase 5 mM PBS, pH 7.4; detection wavelength 270 nm.
The VEGFR-2 cell membrane stationary phase was prepared as previous reported. Aqueous ammonium acetate buffer solution (pH 7.4, 5 mM) was pumped at a flow rate of 0.2 mL/min as the mobile phase after VEGFR-2/CMC column was loaded onto the chromatography system at the temperature of 37°C. […] The mobile phase was 5.0 mM phosphate burred saline with a 0.6 mL/min flow rate at a column temperature of 37°C. The detected wavelength was 270 nm. The test compound was injected into the VEGFR-2/CMC column and their retention characteristics were identified to evaluate their affinity with VEGFR-2.

Test [3] relates to human epidermoid carcinoma cell line (A431). The test can be described thus: Anti-proliferative MTT assay, A431. Format: cell-based. Conditions: A-431, 48 h. The procedure: (§3) These RTKs play critical roles in the proliferation of various cancers. Therefore, RTKs inhibition generally translate well into anti-proliferation activity.
(§4) Exponentially growing cells were harvested and plated in 96-well plates at a concentration of 1×10^4 cells/well per well, and then were incubated at 37°C for 24 h. […] Subsequently, 22 μL fresh MTT (5 mg/mL) was added to each well and incubated at 37°C for 4 h. […] DMSO was added to each well after supernatant was discarded. Absorbance values were determined by a microplate reader (Bio-Rad Instruments) at 490 nm. The IC50 values were calculated according to inhibition ratios.

The target of another test is FGFR-4 (Homo sapiens, UniProt P22455). The test can be described thus: Kinase-Glo Plus RTK selectivity assay, FGFR-4. Format: biochemical. Particulars: 10 μM ATP. As to the method: (§5) A 50 μL reaction mixture contains 40 mM Tris, pH 7.4, 10 mM MgCl2, 0.1 mg/ml BSA, 1 mM DTT, 10 μM ATP, kinase and substrate (0.2 mg/mL Poly(Glu, Tyr)/10 μM ATP). The test compounds were diluted in 10% DMSO and 5 μL of the dilution was added to a 50 μL reaction so that the final concentration of DMSO is 1% in all of reactions. The assay was performed using Kinase-Glo Plus luminescence kinase assay kit. It measures kinase activity by quantitating the amount of ATP remaining in solution following a kinase reaction. The luminescent signal from the assay is correlated with the amount of ATP present and is inversely correlated with the amount of kinase activity. The IC50 values were calculated using nonlinear regression with normalized dose−response fit using Prism GraphPad software.

Test [4] deals with VEGFR-2. Briefly: Western blot of VEGFR-2 level and phosphorylation in EA.hy926 cells. Type of test: cell-based, human. As to the method: The expression and phosphorylation of VEGFR-2 in EA.hy926 cells were assessed using western blot analysis with various antibodies. […] Cell lysates containing equal amounts of protein were separated by SDS polyacrylamide gel electrophoresis and transferred to polyvinylidene difluoride membranes. After being blocked in 5% nonfat milk in Tris-buffered saline with 0.1% Tween 20, pH 7.6, the membranes were incubated with the appropriate primary antibodies at 4°C overnight and then exposed to secondary antibodies for 2 h at room temperature. Immunoreactive proteins were visualized using the enhanced chemiluminescence system from Pierce Chemical.

For the next test, the target named is c-Kit (Homo sapiens, UniProt P10721). Briefly: Kinase-Glo Plus RTK selectivity assay, c-Kit. Format: biochemical. Conditions: 10 μM ATP. As to the method:
as §5

Test [5] has as its system human pancreatic cancerous cell lines (PANC-1). The test can be described thus: Anti-proliferative MTT assay, PANC-1. Type of test: cell-based. Particulars: 48 h. The procedure: as §3, §4
Test [6] deals with human embryonic kidney 293 (HEK293). The test can be described thus: Cytotoxicity on normal cells, HEK293. Conditions: MTT, 48 h, read-out: Anti-proliferative activity IC50, HEK293 (normal cells). Type of test: cell-based. As to the method:
In order to determine the anti-angiogenic effect of these multi-target inhibitors, we evaluated their effect on HECs (EA.hy926) viability using cell counting kit-8 (CCK-8) method.
as §3, §4

Another test has as its target TIE-2 (Homo sapiens, UniProt Q02763). Briefly: ADP-Glo in vitro RTK inhibition assay, TIE-2. Conditions: ATP 50 μM. Format: biochemical. As to the method:
as §1, §2

In the next test the test system is EA.hy926 cells. Briefly: Apoptosis detection assay (annexin V-FITC/PI flow cytometry). Format: cell-based, human. Particulars: 48 h, negative control 10.35%. The procedure: A substantial and dose-dependent proapoptotic activity in HECs at various concentrations for 48 h was observed. The apoptotic EA.hy926 cells (10.35%) of negative control group were depicted in Figure 3A.
The cells were then harvested by trypsinization and washed twice with cold PBS. After centrifugation and removal of the supernatants, EA.hy926 cells were re-suspended in 400 μL of 1×binding buffer which was then added to 5 μL of annexin V-FITC and incubated at room temperature for 15 min. After adding 10 μL of PI the cells were incubated at room temperature for another 15 min in the dark. The stained cells were analyzed by a flow cytometer (BD Accuri C6).

Test [7] has as its system human cervical cancer cell line (HeLa). Briefly: Anti-proliferative MTT assay, HeLa. Type of test: cell-based. Particulars: 48 h. The procedure:
as §3, §4

Molecules are shown by their SMILES. “And” between values parts separate entries of the source, which are not always exact repeats. Equal entries are not always repeated. Where only a bound is given, the exact number is not on record here.

T1 sequence (P35968 20-1356): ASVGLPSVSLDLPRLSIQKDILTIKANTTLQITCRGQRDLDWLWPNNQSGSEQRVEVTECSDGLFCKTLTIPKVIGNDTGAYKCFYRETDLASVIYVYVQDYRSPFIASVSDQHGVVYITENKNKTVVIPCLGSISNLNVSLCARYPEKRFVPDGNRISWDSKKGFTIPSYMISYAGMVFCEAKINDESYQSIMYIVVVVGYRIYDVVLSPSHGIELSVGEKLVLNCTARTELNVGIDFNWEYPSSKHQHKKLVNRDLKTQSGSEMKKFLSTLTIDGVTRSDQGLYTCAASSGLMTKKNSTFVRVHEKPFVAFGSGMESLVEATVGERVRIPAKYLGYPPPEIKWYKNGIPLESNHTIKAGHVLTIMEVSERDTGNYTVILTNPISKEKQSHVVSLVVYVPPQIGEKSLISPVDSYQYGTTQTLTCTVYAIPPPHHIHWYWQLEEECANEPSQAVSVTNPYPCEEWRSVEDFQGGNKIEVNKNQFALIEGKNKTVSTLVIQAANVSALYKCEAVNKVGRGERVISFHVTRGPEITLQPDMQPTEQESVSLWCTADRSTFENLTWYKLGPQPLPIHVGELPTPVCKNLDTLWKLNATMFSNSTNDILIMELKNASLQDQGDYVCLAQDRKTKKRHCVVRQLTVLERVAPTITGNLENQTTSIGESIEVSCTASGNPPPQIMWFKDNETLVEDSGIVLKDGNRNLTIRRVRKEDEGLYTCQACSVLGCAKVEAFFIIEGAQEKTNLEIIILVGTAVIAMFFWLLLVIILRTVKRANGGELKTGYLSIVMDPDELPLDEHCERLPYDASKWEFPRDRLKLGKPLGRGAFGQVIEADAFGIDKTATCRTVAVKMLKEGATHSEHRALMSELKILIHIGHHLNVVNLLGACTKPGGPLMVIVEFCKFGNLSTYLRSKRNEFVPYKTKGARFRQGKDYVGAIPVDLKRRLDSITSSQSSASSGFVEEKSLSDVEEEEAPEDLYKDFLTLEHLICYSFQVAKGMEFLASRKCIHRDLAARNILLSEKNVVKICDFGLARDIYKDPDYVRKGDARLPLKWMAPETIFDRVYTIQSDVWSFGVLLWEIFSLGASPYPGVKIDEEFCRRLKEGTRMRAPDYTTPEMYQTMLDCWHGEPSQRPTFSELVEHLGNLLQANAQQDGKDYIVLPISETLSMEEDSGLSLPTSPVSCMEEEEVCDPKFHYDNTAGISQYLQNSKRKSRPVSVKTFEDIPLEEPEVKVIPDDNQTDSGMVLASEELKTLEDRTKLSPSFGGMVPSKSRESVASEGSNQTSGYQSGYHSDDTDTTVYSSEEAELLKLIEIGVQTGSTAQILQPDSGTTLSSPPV
TIE-2, sequence (Q02763 23-1124): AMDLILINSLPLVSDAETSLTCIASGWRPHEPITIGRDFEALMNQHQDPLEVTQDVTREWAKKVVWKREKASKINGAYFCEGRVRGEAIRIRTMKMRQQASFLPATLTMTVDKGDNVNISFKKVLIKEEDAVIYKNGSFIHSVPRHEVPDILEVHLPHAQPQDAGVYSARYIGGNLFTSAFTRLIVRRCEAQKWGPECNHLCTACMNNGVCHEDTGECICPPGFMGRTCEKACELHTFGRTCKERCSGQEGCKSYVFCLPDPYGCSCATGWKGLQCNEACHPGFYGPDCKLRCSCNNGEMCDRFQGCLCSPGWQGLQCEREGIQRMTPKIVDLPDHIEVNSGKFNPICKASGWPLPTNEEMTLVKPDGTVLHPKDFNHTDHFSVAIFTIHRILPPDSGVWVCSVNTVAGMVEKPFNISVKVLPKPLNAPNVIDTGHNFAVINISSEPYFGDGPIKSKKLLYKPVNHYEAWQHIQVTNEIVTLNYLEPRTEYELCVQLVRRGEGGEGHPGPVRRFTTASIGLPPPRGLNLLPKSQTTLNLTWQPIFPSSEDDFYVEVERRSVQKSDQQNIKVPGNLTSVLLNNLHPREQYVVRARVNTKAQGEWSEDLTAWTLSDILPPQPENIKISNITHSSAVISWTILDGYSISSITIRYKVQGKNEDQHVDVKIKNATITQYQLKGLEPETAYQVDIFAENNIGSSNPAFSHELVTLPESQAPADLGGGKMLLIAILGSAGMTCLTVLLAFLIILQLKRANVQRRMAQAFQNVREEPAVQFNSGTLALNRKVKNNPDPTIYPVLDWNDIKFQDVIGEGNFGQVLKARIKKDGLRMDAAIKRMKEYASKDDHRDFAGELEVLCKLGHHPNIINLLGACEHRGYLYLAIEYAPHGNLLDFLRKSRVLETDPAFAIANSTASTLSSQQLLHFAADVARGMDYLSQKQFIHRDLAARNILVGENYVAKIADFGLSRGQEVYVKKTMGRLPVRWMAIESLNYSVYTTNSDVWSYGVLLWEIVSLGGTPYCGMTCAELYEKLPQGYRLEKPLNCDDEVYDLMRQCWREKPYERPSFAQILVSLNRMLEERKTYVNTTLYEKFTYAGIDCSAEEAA
c-Kit, sequence (P10721 26-976): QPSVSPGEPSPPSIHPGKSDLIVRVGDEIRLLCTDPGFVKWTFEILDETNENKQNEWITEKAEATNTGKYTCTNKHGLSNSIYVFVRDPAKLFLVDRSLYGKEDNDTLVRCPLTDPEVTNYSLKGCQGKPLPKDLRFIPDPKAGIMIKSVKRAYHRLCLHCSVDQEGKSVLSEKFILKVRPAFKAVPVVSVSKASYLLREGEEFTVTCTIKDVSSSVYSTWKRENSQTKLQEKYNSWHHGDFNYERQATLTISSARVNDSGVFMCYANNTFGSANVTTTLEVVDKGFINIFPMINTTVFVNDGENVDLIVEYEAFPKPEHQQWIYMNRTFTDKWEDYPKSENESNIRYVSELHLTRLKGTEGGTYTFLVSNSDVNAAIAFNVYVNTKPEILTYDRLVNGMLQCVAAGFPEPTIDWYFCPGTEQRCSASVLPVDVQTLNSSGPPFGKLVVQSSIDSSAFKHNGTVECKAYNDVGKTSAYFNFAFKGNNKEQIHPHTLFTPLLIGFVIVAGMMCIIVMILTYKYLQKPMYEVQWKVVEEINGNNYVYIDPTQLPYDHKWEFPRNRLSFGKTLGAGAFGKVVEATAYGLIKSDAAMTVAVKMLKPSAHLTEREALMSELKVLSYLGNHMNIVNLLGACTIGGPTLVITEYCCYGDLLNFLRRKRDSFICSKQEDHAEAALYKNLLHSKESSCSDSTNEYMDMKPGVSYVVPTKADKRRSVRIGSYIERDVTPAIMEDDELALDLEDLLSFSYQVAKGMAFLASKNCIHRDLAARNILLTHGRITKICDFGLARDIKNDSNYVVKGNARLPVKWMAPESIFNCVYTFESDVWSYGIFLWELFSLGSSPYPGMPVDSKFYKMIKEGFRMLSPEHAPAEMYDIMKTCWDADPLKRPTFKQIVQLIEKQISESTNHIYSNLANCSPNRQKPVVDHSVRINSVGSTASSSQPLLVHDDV
FGFR-4, sequence (P22455 22-802, species assumed): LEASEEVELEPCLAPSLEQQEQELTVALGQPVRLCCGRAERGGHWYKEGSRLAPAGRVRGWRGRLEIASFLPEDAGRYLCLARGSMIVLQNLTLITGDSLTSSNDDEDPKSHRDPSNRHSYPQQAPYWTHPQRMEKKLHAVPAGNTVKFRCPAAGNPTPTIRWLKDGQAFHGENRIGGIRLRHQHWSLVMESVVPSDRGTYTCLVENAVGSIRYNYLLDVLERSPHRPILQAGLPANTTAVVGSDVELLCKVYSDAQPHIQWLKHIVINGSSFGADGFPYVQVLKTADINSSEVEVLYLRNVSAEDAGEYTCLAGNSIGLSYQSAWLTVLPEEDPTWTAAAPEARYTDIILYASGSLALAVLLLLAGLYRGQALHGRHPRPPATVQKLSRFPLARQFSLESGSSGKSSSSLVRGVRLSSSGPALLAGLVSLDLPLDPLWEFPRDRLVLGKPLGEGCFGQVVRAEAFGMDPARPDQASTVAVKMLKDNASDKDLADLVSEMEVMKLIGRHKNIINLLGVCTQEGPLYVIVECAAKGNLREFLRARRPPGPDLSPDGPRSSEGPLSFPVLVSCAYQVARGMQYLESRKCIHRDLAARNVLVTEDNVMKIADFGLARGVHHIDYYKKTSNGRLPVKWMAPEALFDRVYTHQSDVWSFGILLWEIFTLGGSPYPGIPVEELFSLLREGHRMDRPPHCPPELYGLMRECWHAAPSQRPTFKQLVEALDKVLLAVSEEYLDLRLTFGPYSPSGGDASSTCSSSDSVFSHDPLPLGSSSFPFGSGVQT

As to `O=C(Nc1ccc(-c2ccc3c(=O)[nH]cnc3c2)cc1)Nc1ccc(F)c(F)c1` [QDAU5, 1-(3,4-difluorophenyl)-3-(4-(4-oxo-3,4-dihydroquinazolin-7-yl)phenyl)urea], the concentration for half-maximal inhibition (IC50) at VEGFR-2 [1] is 0.00077 µM; in test [3] it was 16.9 µM; at FGFR-4 it was greater than 0.5 µM; on c-Kit, 0.142 µM; in test [5], 24.9 µM; in test [6], greater than 100 µM. Also, the IC50 against TIE-2 is 0.00887 µM; in [7], 5.56 µM. Also, on VEGFR-2 [2] (QDAU5 at increasing concentrations in the mobile phase), the “Direct competitive assay on VEGFR-2/CMC (change in K' of multi-target RTK inhibitors)” value is recorded as “interacted with the same site of VEGFR-2”. At VEGFR-2 [2] (flow rate 0.6 mL/min, 37°C, 5 mM PBS pH 7.4, 270 nm), the “Retention time on VEGFR-2/cell membrane stationary phase column” value was 38 min and 38.0 min. In the test with VEGFR-2 [4] (EA.hy926, 48 h, then 50 ng/mL VEGF for 10 min), the “VEGF-induced tyrosine phosphorylation of VEGFR-2” value was “dose-dependently decreased”. Moreover, in the test on VEGFR-2 [4] (VEGF-stimulated EA.hy926, 48 h), the “level of VEGFR-2” value was “moderately reduced”. Besides, the “percentage of early apoptotic cells” value with EA.hy926 cells (EA.hy926, 5 nM) stood at 19.55%; with EA.hy926 cells (EA.hy926, 20 nM), 28.35%; in the test with EA.hy926 cells (EA.hy926, 40 nM), 31.43%.
